Data published in ChEMBL document CHEMBL5608163, “Structure modification of anoplin for fighting resistant bacteria” (Eur J Med Chem, 2024).
Square brackets hold non-standard residues; d marks the D form. Peptide text beside a SMILES is read from it. 2Nal = N[C@@H](Cc1ccc2ccccc2c1)C(=O)O; Cha = N[C@@H](CC1CCCCC1)C(=O)O; Aoc(2) = CCCCCC[C@H](N)C(=O)O; hSer = N[C@@H](CCO)C(=O)O; Nle = CCCC[C@H](N)C(=O)O; Orn = NCCC[C@H](N)C(=O)O; Dab = NCC[C@H](N)C(=O)O; Nva = CCC[C@H](N)C(=O)O; Dap = NC[C@H](N)C(=O)O

How the values were obtained:
Erythrocyte = assay: Hemolytic activity in human erythrocytes incubated for 1 hr by ELISA reader analysis; type: toxicity, cell-based
Escherichia coli = assay: Antimicrobial activity against Escherichia coli ATCC 25922 assessed as reduction in microbial growth measured after 24 hrs by CLSI based broth microdilution method; type: functional

MIC (Escherichia coli) [µM]	Compound	HC10 (Erythrocyte) [µM]
50	CC[C@H](C)[C@H](NC(=O)[C@H](CCCNC(=N)N)NC(=O)[C@H](CCCCN)NC(=O)[C@H](CC(C)C)NC(=O)[C@H](C)NC(=O)CN)C(=O)N[C@@H](CCCCN)C(=O)N[C@H](C(=O)N[C@@H](CC(C)C)C(=O)N[C@@H](C)C(N)=O)[C@@H](C)O (H-GALKRIKTLA-NH2)	> 500
> 200	CC(C)C[C@H](NC(=O)[C@H](C)NC(=O)CN)C(=O)N[C@@H](CCCCN)C(=O)N[C@@H](CCCNC(=N)N)C(=O)N[C@@H](Cc1ccc2ccccc2c1)C(=O)N[C@@H](CCCCN)C(=O)N[C@H](C(=O)N[C@@H](CC(C)C)C(=O)N[C@@H](C)C(N)=O)[C@@H](C)O (H-GALKR[2Nal]KTLA-NH2)	> 500
100	CC[C@H](C)[C@H](NC(=O)[C@H](CCCNC(=N)N)NC(=O)[C@H](CCCCN)NC(=O)[C@H](CC(C)C)NC(=O)[C@H](CC(C)C)NC(=O)CN)C(=O)N[C@@H](CCCCN)C(=O)N[C@@H](CO)C(=O)N[C@@H](CC(C)C)C(=O)N[C@@H](CC(C)C)C(N)=O (H-GLLKRIKSLL-NH2)	> 500
100	CC[C@H](C)[C@H](NC(=O)[C@H](CCCNC(=N)N)NC(=O)[C@H](CO)NC(=O)[C@H](CC(C)C)NC(=O)[C@H](CC(C)C)NC(=O)CN)C(=O)N[C@@H](CCCCN)C(=O)N[C@H](C(=O)N[C@@H](CC(C)C)C(=O)N[C@@H](CC(C)C)C(N)=O)[C@@H](C)O (H-GLLSRIKTLL-NH2)	> 500
200	CC[C@H](C)[C@H](NC(=O)[C@H](CCCNC(=N)N)NC(=O)[C@@H](NC(=O)[C@H](CC(C)C)NC(=O)[C@H](CC(C)C)NC(=O)CN)[C@@H](C)O)C(=O)N[C@@H](CCCCN)C(=O)N[C@H](C(=O)N[C@@H](CC(C)C)C(=O)N[C@@H](CC(C)C)C(N)=O)[C@@H](C)O (H-GLLTRIKTLL-NH2)	> 500
75	CC[C@H](C)[C@H](NC(=O)[C@H](CCCNC(=N)N)NC(=O)[C@H](CCN)NC(=O)[C@H](CC(C)C)NC(=O)[C@H](CC(C)C)NC(=O)CN)C(=O)N[C@@H](CCCCN)C(=O)N[C@H](C(=O)N[C@@H](CC(C)C)C(=O)N[C@@H](CC(C)C)C(N)=O)[C@@H](C)O (H-GLL[Dab]RIKTLL-NH2)	> 500
> 200	CC[C@H](C)[C@H](NC(=O)[C@H](CCCNC(=N)N)NC(=O)[C@H](CCN)NC(=O)[C@H](CC(C)C)NC(=O)[C@H](CC(C)C)NC(=O)CN)C(=O)N[C@@H](CCCCN)C(=O)N[C@@H](CCN)C(=O)N[C@@H](CC(C)C)C(=O)N[C@@H](CC(C)C)C(N)=O (H-GLL[Dab]RIK[Dab]LL-NH2)	> 500
100	CC[C@H](C)[C@H](NC(=O)[C@H](CCCNC(=N)N)NC(=O)[C@H](CN)NC(=O)[C@H](CC(C)C)NC(=O)[C@H](CC(C)C)NC(=O)CN)C(=O)N[C@@H](CCCCN)C(=O)N[C@H](C(=O)N[C@@H](CC(C)C)C(=O)N[C@@H](CC(C)C)C(N)=O)[C@@H](C)O (H-GLL[Dap]RIKTLL-NH2)	> 500
100	CC[C@H](C)[C@H](NC(=O)[C@H](CCCNC(=N)N)NC(=O)[C@H](CCCN)NC(=O)[C@H](CC(C)C)NC(=O)[C@H](CC(C)C)NC(=O)CN)C(=O)N[C@@H](CCCCN)C(=O)N[C@H](C(=O)N[C@@H](CC(C)C)C(=O)N[C@@H](CC(C)C)C(N)=O)[C@@H](C)O (H-GLL[Orn]RIKTLL-NH2)	> 500
150	CC[C@H](C)[C@H](NC(=O)[C@H](CCCNC(=N)N)NC(=O)[C@H](CCO)NC(=O)[C@H](CC(C)C)NC(=O)[C@H](CC(C)C)NC(=O)CN)C(=O)N[C@@H](CCCCN)C(=O)N[C@H](C(=O)N[C@@H](CC(C)C)C(=O)N[C@@H](CC(C)C)C(N)=O)[C@@H](C)O (H-GLL[hSer]RIKTLL-NH2)	> 500
> 200	CC[C@H](C)[C@H](NC(=O)[C@H](CCCNC(=N)N)NC(=O)[C@H](CCCCN)NC(=O)[C@H](CCSC)NC(=O)[C@H](CC(C)C)NC(=O)CN)C(=O)N[C@@H](CCCCN)C(=O)N[C@H](C(=O)N[C@@H](CCSC)C(=O)N[C@@H](CC(C)C)C(N)=O)[C@@H](C)O (H-GLMKRIKTML-NH2)	> 500
100	CCC[C@H](NC(=O)[C@H](CC(C)C)NC(=O)CN)C(=O)N[C@@H](CCCCN)C(=O)N[C@@H](CCCNC(=N)N)C(=O)N[C@@H](Cc1ccc2ccccc2c1)C(=O)N[C@@H](CCCCN)C(=O)N[C@H](C(=O)N[C@@H](CCC)C(=O)N[C@@H](CC(C)C)C(N)=O)[C@@H](C)O (H-GL[Nva]KR[2Nal]KT[Nva]L-NH2)	> 500
200	CC[C@H](C)[C@H](NC(=O)[C@H](CCCNC(=N)N)NC(=O)[C@H](CCCCN)NC(=O)[C@H](CC(C)C)NC(=O)[C@H](CCSC)NC(=O)CN)C(=O)N[C@@H](CCCCN)C(=O)N[C@H](C(=O)N[C@@H](CC(C)C)C(=O)N[C@@H](CC(C)C)C(N)=O)[C@@H](C)O (H-GMLKRIKTLL-NH2)	400
> 200	CC[C@H](C)[C@H](NC(=O)[C@H](CCCNC(=N)N)NC(=O)[C@H](CCCCN)NC(=O)[C@H](CC(C)C)NC(=O)[C@H](CCSC)NC(=O)CN)C(=O)N[C@@H](CCCCN)C(=O)N[C@H](C(=O)N[C@@H](CC(C)C)C(=O)N[C@@H](CCSC)C(N)=O)[C@@H](C)O (H-GMLKRIKTLM-NH2)	500
> 200	CC[C@H](C)[C@H](NC(=O)[C@H](CCCNC(=N)N)NC(=O)[C@H](CCCCN)NC(=O)[C@H](CCSC)NC(=O)[C@H](CCSC)NC(=O)CN)C(=O)N[C@@H](CCCCN)C(=O)N[C@H](C(=O)N[C@@H](CCSC)C(=O)N[C@@H](CCSC)C(N)=O)[C@@H](C)O (H-GMMKRIKTMM-NH2)	> 500
> 200	CC[C@H](C)[C@H](NC(=O)[C@H](CCCNC(=N)N)NC(=O)[C@H](CCCCN)NC(=O)[C@H](CC(C)C)NC(=O)[C@H](COC)NC(=O)CN)C(=O)N[C@@H](CCCCN)C(=O)N[C@H](C(=O)N[C@@H](CC(C)C)C(=O)N[C@@H](CC(C)C)C(N)=O)[C@@H](C)O (H-GS(Me)LKRIKTLL-NH2)	> 500
> 200	CC[C@H](C)[C@H](NC(=O)[C@H](CCCNC(=N)N)NC(=O)[C@H](CCCCN)NC(=O)[C@H](CC(C)C)NC(=O)[C@H](COC)NC(=O)CN)C(=O)N[C@@H](CCCCN)C(=O)N[C@H](C(=O)N[C@@H](CC(C)C)C(=O)N[C@@H](COC)C(N)=O)[C@@H](C)O (H-GS(Me)LKRIKTLS(Me)-NH2)	> 500
12.5	CC[C@H](C)[C@H](NC(=O)[C@H](CCCNC(=N)N)NC(=O)[C@H](CCCCN)NC(=O)[C@H](COC)NC(=O)[C@H](COC)NC(=O)CN)C(=O)N[C@@H](CCCCN)C(=O)N[C@H](C(=O)N[C@@H](COC)C(=O)N[C@@H](COC)C(N)=O)[C@@H](C)O (H-GS(Me)S(Me)KRIKTS(Me)S(Me)-NH2)	> 500
> 200	CC[C@H](C)[C@H](NC(=O)[C@H](CCCNC(=N)N)NC(=O)[C@H](CCCCN)NC(=O)[C@H](CC(C)C)NC(=O)[C@@H](NC(=O)CN)C(C)C)C(=O)N[C@@H](CCCCN)C(=O)N[C@H](C(=O)N[C@@H](CC(C)C)C(=O)N[C@H](C(N)=O)C(C)C)[C@@H](C)O (H-GVLKRIKTLV-NH2)	> 500
> 200	CC[C@H](C)[C@H](NC(=O)[C@H](CCCNC(=N)N)NC(=O)[C@H](CCCCN)NC(=O)[C@@H](NC(=O)[C@@H](NC(=O)CN)C(C)C)C(C)C)C(=O)N[C@@H](CCCCN)C(=O)N[C@H](C(=O)N[C@H](C(=O)N[C@H](C(N)=O)C(C)C)C(C)C)[C@@H](C)O (H-GVVKRIKTVV-NH2)	> 500
6.25	CC[C@H](C)[C@H](NC(=O)[C@H](CCCNC(=N)N)NC(=O)[C@H](CCCCN)NC(=O)[C@H](Cc1ccc2ccccc2c1)NC(=O)CN)C(=O)N[C@@H](CCCCN)C(=O)N[C@H](C(=O)N[C@@H](CC(C)C)C(=O)N[C@@H](CC(C)C)C(N)=O)[C@@H](C)O (H-G[2Nal]KRIKTLL-NH2)	300
6.25	CCCCCC[C@H](NC(=O)[C@H](CC(C)C)NC(=O)[C@@H](NC(=O)[C@H](CCCCN)NC(=O)[C@@H](NC(=O)[C@H](CCCNC(=N)N)NC(=O)[C@H](CCCCN)NC(=O)[C@H](CC(C)C)NC(=O)[C@H](CCCCCC)NC(=O)CN)[C@@H](C)CC)[C@@H](C)O)C(N)=O (H-G[Aoc(2)]LKRIKTL[Aoc(2)]-NH2)	71
	CCCCCC[C@H](NC(=O)[C@H](CCCCCC)NC(=O)[C@@H](NC(=O)[C@H](CCCCN)NC(=O)[C@@H](NC(=O)[C@H](CCCNC(=N)N)NC(=O)[C@H](CCCCN)NC(=O)[C@H](CCCCCC)NC(=O)[C@H](CCCCCC)NC(=O)CN)[C@@H](C)CC)[C@@H](C)O)C(N)=O (H-G[Aoc(2)][Aoc(2)]KRIKT[Aoc(2)][Aoc(2)]-NH2)	20
12.5	CC[C@H](C)[C@H](NC(=O)[C@H](CCCNC(=N)N)NC(=O)[C@H](CCCCN)NC(=O)[C@H](CC(C)C)NC(=O)[C@H](CC1CCCCC1)NC(=O)CN)C(=O)N[C@@H](CCCCN)C(=O)N[C@H](C(=O)N[C@@H](CC1CCCCC1)C(=O)N[C@@H](CC(C)C)C(N)=O)[C@@H](C)O (H-G[Cha]LKRIKT[Cha]L-NH2)	120
100	CCCC[C@H](NC(=O)[C@H](CC(C)C)NC(=O)[C@@H](NC(=O)[C@H](CCCCN)NC(=O)[C@@H](NC(=O)[C@H](CCCNC(=N)N)NC(=O)[C@H](CCCCN)NC(=O)[C@H](CC(C)C)NC(=O)[C@H](CCCC)NC(=O)CN)[C@@H](C)CC)[C@@H](C)O)C(N)=O (H-G[Nle]LKRIKTL[Nle]-NH2)	> 500
100	CCCC[C@H](NC(=O)[C@H](CCCC)NC(=O)[C@@H](NC(=O)[C@H](CCCCN)NC(=O)[C@@H](NC(=O)[C@H](CCCNC(=N)N)NC(=O)[C@H](CCCCN)NC(=O)[C@H](CCCC)NC(=O)[C@H](CCCC)NC(=O)CN)[C@@H](C)CC)[C@@H](C)O)C(N)=O (H-G[Nle][Nle]KRIKT[Nle][Nle]-NH2)	> 500
> 200	CCC[C@H](NC(=O)[C@H](CC(C)C)NC(=O)[C@@H](NC(=O)[C@H](CCCCN)NC(=O)[C@@H](NC(=O)[C@H](CCCNC(=N)N)NC(=O)[C@H](CCCCN)NC(=O)[C@H](CC(C)C)NC(=O)[C@H](CCC)NC(=O)CN)[C@@H](C)CC)[C@@H](C)O)C(N)=O (H-G[Nva]LKRIKTL[Nva]-NH2)	> 500
